The source of these data is patent US6787651B2, “Substituted indoles, pharmaceutical compounds containing such indoles and their use as PPAR-γ binding agents” (SmithKline Beecham Corporation, priority 2000, dated 2004).

Like-named read-outs stand apart in the source and are kept apart here.

In data set [1] the target is T1, PPARγ ligand binding domain (LBD) (amino acids 195-475) (Homo sapiens, UniProt P37231).
T1 construct: polyHis; made in house; host or cells: Escherichia coli
T1 sequence (P37231 195-475 isoform P37231-2): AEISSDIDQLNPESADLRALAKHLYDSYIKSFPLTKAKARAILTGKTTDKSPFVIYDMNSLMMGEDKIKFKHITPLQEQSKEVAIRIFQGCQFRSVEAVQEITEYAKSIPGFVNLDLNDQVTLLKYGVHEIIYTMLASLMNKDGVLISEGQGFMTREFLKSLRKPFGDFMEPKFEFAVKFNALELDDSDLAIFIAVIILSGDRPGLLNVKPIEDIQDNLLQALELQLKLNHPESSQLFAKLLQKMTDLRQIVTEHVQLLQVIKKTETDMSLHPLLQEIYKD
Briefly: PPAR-γ binding assay (spin plate / gel filtration binding assay, displacement of [3H]BRL 49653). The procedure:
The activity of a given compound in binding to PPAR-γ can be assayed routinely according to procedures known in the art. […] The PPAR-γ binding assay described below was used to determine the PPAR-γ binding activities of the compounds of the invention.
Compounds were tested for their ability to bind to PPARγ using a spin plate assay (gel filtration binding assay). […] Each compound was tested in triplicate. […] The plates were centrifuged (Beckman GS-6R) at 2500 rpm for 5 minutes, 170 μl Scitisafe® scintillation fluid (Fisher) was added to each well, the plates were sealed, and after 1 hour, were counted in a Wallac MicroBeta counter. The amount of nonspecific binding, as assessed by control wells containing 10 μM of the corresponding unlabeled ligand, was subtracted from each data point. For each compound tested, the data was averaged and plots of ligand concentration versus CPM of radioligand bound were constructed. Apparent IC50 values were estimated from nonlinear least-squares fit of the data assuming simple competitive binding.
A general note: Size exclusion chromatography separates by hydrodynamic size, large species first.

Where [2] appears, read: read-out: IC50 range in the PPAR-γ Binding Assay.

Consider `COc1cccc(Cn2c(C(=O)O)c(-c3ccc(C(C)(C)C)cc3)c3cc(N(C)C(=O)C4CC4)ccc32)c1` [Example 274], for which the melting point is 219 to 222 °C. In addition, the IC50 in data set [1] (setting [2]) was in the range of 10 to 10000 nM. `CC(C)c1cccc(-c2c(C(=O)O)n(Cc3cccc(OCC4CC4)c3)c3ccccc23)c1` [Example 284] had a melting point of 204 °C. In addition, the IC50 in data set [1] (setting [2]) is 0.1 to 9.99 nM. The matching figures for `COc1cccc(Cn2c(C(=O)O)c(-c3cccc(C(=O)NC4CCCC4)c3)c3ccccc32)c1` [Example 329]: 108 °C and 10 to 10000 nM. The matching figures for `COc1cccc(Cn2c(C(=O)O)c(-c3ccc(C(C)(C)C)cc3)c3cccc(NC(=O)C4CC4)c32)c1` [Example 292]: 151 °C and 10 to 10000 nM.

`COc1cccc(Cn2c(C(=O)O)c(-c3ccc(C(=O)NC4CC4)cc3)c3ccccc32)c1` [Example 323, 3-[4-(N-cyclopropylcarbamoyl)phenyl]-1-[(3-methoxyphenyl)methyl]indole-2-carboxylic acid] came in with a melting point of 237 °C. In addition, the IC50 in data set [1] (setting [2]) fell in the range of 10 to 10000 nM.

Consider `COc1cccc(Cn2c(C(=O)O)c(-c3ccc(OCC4CC4)cc3)c3cc(OCc4ccccc4)ccc32)c1` [Example 229, 5-(Benzyloxy)-3-[4-(cyclopropylmethoxy)phenyl]-1-(3-methoxybenzyl)-1H-indole-2-carboxylic acid], for which the melting point lay within 185 to 187 °C.

On to `O=C(O)c1c(C=C2CC2)c2ccccc2n1Cc1cccc(C(F)(F)F)c1` [Example 231, 3-(Cyclopropylidenemethyl)-1-[3-(trifluoromethyl)benzyl]-1H-indole-2-carboxylic acid], for which the melting point was in the range of 148 to 150 °C. In addition, the concentration for half-maximal inhibition (IC50) in data set [1] (setting [2]) is 0.1 to 9.99 nM.

Molecule `COc1ccc(-c2c(C(=O)NS(=O)(=O)c3ccc(C)cc3)n(Cc3cccc(C(F)(F)F)c3)c3ccccc23)cc1` [Example 358] returned a melting point of 162 °C. In data set [1] (setting [2]), the IC50 is 10 to 10000 nM.

As to `COc1cccc(Cn2c(C(=O)O)c(-c3ccc(C(C)(C)C)cc3)c3cc(NC(=O)C4CCCC4)ccc32)c1` [Example 269], the melting point lay within 154 to 156 °C. In data set [1] (setting [2]), the IC50 lay in the range of 10 to 10000 nM. The matching figures for `COc1ccc(-c2c(C(=O)O)n(CS(=O)(=O)c3ccccc3)c3ccccc23)cc1` [Example 282]: 166 to 168 °C and 10 to 10000 nM. In the same order, the values of `COc1cccc(Cn2c(C(=O)O)c3c4cc(ccc42)OCCCCCCOc2cccc-3c2)c1` [Example 300] are 79 to 80 °C and 10 to 10000 nM.

As for `COc1cccc(Cn2c(C(=O)O)c(-c3ccc(C(C)(C)C)cc3)c3cc4c(cc32)OCO4)c1` [Example 277], the melting point was in the range of 179.1 to 179.7 °C. Besides, the IC50 in data set [1] (setting [2]) was 0.1 to 9.99 nM. `O=C(O)c1c(-c2cccc(OCC3CC3)c2)c2ccccc2n1Cc1ccc(F)cc1` [Example 339, 3-[3-(Cyclopropylmethoxy)phenyl]-1-[(4-fluorophenyl)methyl]indole-2-carboxylic Acid] registered a melting point of 200 to 202 °C. Moreover, the IC50 in data set [1] (setting [2]) lay within 0.1 to 9.99 nM.

As to `COc1cccc(Cn2c(C(=O)O)c(-c3ccc(C(C)(C)C)cc3)c3cc(COCC4CC4)ccc32)c1` [Example 266], the melting point is 79 to 80 °C. Besides, the IC50 in data set [1] (setting [2]) was in the range of 0.1 to 9.99 nM. On to `COc1cccc(Cn2c(C(=O)O)c(-c3ccc(C(C)(C)C)cc3)c3cccc(NC(=O)NC4CC4)c32)c1` [Example 291], for which the melting point is 168 °C (dec.). The IC50 in data set [1] (setting [2]) was 10 to 10000 nM.

With `CCOc1ccc(-c2c(C(=O)O)n(Cc3ccc(F)cc3)c3c(NC(=O)C4CC4)cccc23)cc1` [Example 285], the melting point came out at 250 °C. In turn, `CC(=O)Nc1cccc(-c2c(C(=O)O)n(Cc3cccc(OCC4CC4)c3)c3ccccc23)c1` [Example 298] gave a melting point of 122 to 123 °C. Further, the IC50 in data set [1] (setting [2]) is 10 to 10000 nM.

Molecule `O=C(O)c1c(-c2ccc(OCC3CC3)cc2)c2ccccc2n1Cc1cccc(OC(F)(F)F)c1` [Example 346] yielded a melting point of 204 to 205 °C. In addition, the IC50 in data set [1] (setting [2]) is 0.1 to 9.99 nM.

As to `O=C(O)c1c(C#Cc2ccccc2)c2ccccc2n1Cc1cccc(C(F)(F)F)c1` [Example 244], the melting point lay within 165 to 167 °C. In addition, the IC50 in data set [1] (setting [2]) was 0.1 to 9.99 nM. The matching figures for `COc1ccc(Cc2c(C(=O)O)n(CC3CC3)c3ccccc23)cc1` [Example 230, 1-(Cyclopropylmethyl)-3-[(4-methoxyphenyl)methyl]indole-2-carboxylic acid]: 162 to 163 °C and 10 to 10000 nM. In the same order, the values of `COc1cccc(Cn2c(C(=O)O)c(CC3CC3)c3ccccc32)c1` [Example 265] are 165 to 167 °C and 0.1 to 9.99 nM. The matching figures for `COc1cccc(Cn2c(C(=O)O)c(-c3ccc(C(=O)NC4CCCC4)cc3)c3ccccc32)c1` [Example 324]: 230 °C and 10 to 10000 nM. `COc1ccc(-c2c(C(=O)O)n(Cc3cccc(OCC4CC4)c3)c3ccccc23)cc1` [Example 287] had a melting point of 168 °C. Also, the 50% inhibitory concentration (IC50) in data set [1] (setting [2]) was in the range of 0.1 to 9.99 nM. In the same order, the values of `CC(=O)c1ccc(-c2c(C(=O)O)n(Cc3cccc(C(F)(F)F)c3)c3ccccc23)s1` [Example 236] are 212 to 214 °C and 0.1 to 9.99 nM. The matching figures for `CC(=O)c1cccc(-c2c(C(=O)O)n(Cc3cccc(OCC4CC4)c3)c3ccccc23)c1` [Example 290]: 103 °C and 0.1 to 9.99 nM. Take `COc1ccc(-c2c(C(=O)O)n(Cc3cccc(OC)c3)c3ccc(C(C)=O)cc23)cc1` [Example 301]: the melting point was 190 °C (dec.). Moreover, the IC50 in data set [1] (setting [2]) is 10 to 10000 nM. In the same order, the values of `COc1cccc(Cn2c(C(=O)O)c(-c3ncc(C(C)=O)s3)c3ccccc32)c1` [Example 343] are 218 °C (dec.) and 0.1 to 9.99 nM. The matching figures for `COc1cccc(Cn2c(C(=O)O)c(-c3cccc(OCC4CC4)c3)c3ccccc32)c1` [Example 345]: 147 to 148 °C and 0.1 to 9.99 nM. In the same order, the values of `O=C(O)c1c(/C=C/c2ccccc2)c2ccccc2n1Cc1cccc(C(F)(F)F)c1` [Example 243] are 183 to 185 °C and 0.1 to 9.99 nM. With `COc1cccc(Cn2c(C(=O)O)c(-c3cccc(C(=O)NC4CC4)c3)c3ccccc32)c1` [Example 328], the melting point was 204 °C. Also, in data set [1] (setting [2]), the IC50 lay in the range of 10 to 10000 nM.

On to `COc1ccc(C(=O)c2c(C(=O)O)n(Cc3cccc(OC)c3)c3ccccc23)cc1` [Example 241], for which the melting point lay in the range of 68 to 69 °C. In addition, the IC50 in data set [1] fell in the range of 10 to 10000 nM. The molecule `Cc1cccc(-c2c(C(=O)O)n(Cc3cccc(OCC4CC4)c3)c3ccccc23)c1` [Example 299] displayed a melting point of 58 to 60 °C. The IC50 in data set [1] (setting [2]) fell in the range of 0.1 to 9.99 nM. In the case of `COc1cccc(Cn2c(C(=O)O)c(-c3ccc(C(C)(C)C)cc3)c3cc(NC(=O)C4CC4)ccc32)c1` [Example 268], the melting point was in the range of 194 to 196 °C. Besides, the IC50 in data set [1] (setting [2]) was in the range of 0.1 to 9.99 nM.

In the case of `O=C(O)c1c(-c2ccc(OCC3CC3)cc2)c2ccccc2n1Cc1ccc(F)cc1` [Example 341], the melting point was in the range of 197 to 198 °C. The IC50 in data set [1] (setting [2]) was 0.1 to 9.99 nM. In turn, `O=C(O)c1c(CC2CC2)c2ccccc2n1Cc1cccc(C(F)(F)F)c1` [Example 264] had a melting point of 174 to 175 °C. For the same molecule, the IC50 in data set [1] (setting [2]) lay within 0.1 to 9.99 nM.

For the molecule `CC(C)(C)c1ccc(-c2c(C(=O)O)n(Cc3cccc(OCC4CC4)c3)c3ccccc23)cc1` [Example 288], the melting point came to 120 °C. Moreover, in data set [1] (setting [2]), the IC50 was 0.1 to 9.99 nM. Regarding `O=C(O)c1c(-c2ccc(C3CC3)cc2)c2ccccc2n1Cc1cccc(C(F)(F)F)c1` [Example 260], the IC50 in data set [1] (setting [2]) fell in the range of 0.1 to 9.99 nM. On the same count and under the same terms, the result for `COc1cccc(Cn2c(C(=O)O)c(-c3ccc(OCC4CC4)cc3)c3cc(OCc4ccc(C(F)(F)F)cc4)ccc32)c1` [Example 319] reads 10 to 10000 nM; that for `COc1cccc(Cn2c(C(=O)O)c(-c3ccc(OCC4CC4)cc3)c3cc(OCC=O)ccc32)c1` [Example 313], 0.1 to 9.99 nM; that for `COc1ccc(-c2c(C(=O)O)n(CC(=O)c3ccccc3)c3ccccc23)cc1` [Example 281], 10 to 10000 nM. Still for that read-out and setting: the result for `COc1cccc(Cn2c(C(=O)O)c(-c3ccc(OCC(=O)c4ccc(N5CCCC5)cc4)cc3)c3ccccc32)c1` [Example 310] reads 10 to 10000 nM. On the same count and under the same terms, next, `COc1cccc(Cn2c(C(=O)O)c(-c3ccc(OCC4CC4)cc3)c3cc(OCC(=O)O)ccc32)c1` [Example 267]: 10 to 10000 nM. On to `COc1cccc(Cn2c(C(=O)O)c(-c3ccc(C4CC4)cc3)c3ccccc32)c1` [Example 261], for which the IC50 in data set [1] (setting [2]) lay in the range of 0.1 to 9.99 nM. The same measure, in the same setting: the result for `COc1cccc(COc2ccc3c(c2)c(-c2ccc(OCC4CC4)cc2)c(C(=O)O)n3Cc2cccc(OC)c2)c1` [Example 315] reads 0.1 to 9.99 nM; that for `COc1cccc(Cn2c(C(=O)O)c(-c3ccc(SC4CC4)cc3)c3ccccc32)c1` [Example 263], 0.1 to 9.99 nM.

By IC50 is commonly meant the concentration that gives 50% inhibition. A word on the melting point: it is the temperature of the solid-liquid transition.
